# Measurements taken from patent US20240358731A1, “SUMO PATHWAY AS AN OXYGEN SENSOR RELEVANT TO THE PATHOPHYSIOLOGY OF PULMONARY ARTERY HYPERTENSION AND CARDIAC ARRHYTHMIA” (Northeastern University, priority 2023, published 2024).
# Residue numbers refer to the chain shown, from its start.
# How the values were obtained:
# [1] = molecular target: T1, Kir2.1-mediated IK1 current (Rattus norvegicus, UniProt Q64273); assay: Whole-cell patch-clamp of IK1 in rat ventricular cardiomyocytes under acute hypoxia; format: cell-based
# T1 construct: endogenous in cells; host or cells: rat ventricular cardiomyocytes (RVCMs)
# T1 sequence (Q64273 1-427): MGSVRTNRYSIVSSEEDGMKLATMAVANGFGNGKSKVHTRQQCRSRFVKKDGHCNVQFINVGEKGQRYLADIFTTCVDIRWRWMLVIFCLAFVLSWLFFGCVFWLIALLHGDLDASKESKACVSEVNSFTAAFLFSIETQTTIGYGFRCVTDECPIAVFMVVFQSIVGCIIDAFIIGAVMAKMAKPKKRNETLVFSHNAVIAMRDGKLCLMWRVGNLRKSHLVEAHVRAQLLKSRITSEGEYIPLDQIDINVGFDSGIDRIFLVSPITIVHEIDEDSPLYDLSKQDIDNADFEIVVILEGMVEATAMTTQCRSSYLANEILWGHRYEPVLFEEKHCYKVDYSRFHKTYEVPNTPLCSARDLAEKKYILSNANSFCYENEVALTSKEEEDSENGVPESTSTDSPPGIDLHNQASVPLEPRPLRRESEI
# Protocol: IK1 in rat ventricular cardiomyocytes studied by whole-cell patch-clamp. Hypoxia was a drop in O2 from ambient levels to 2%, measured at the cell. The time-course of hypoxic-inhibition was studied by recording the magnitude of IK1 every second. Cells were studied with the following pipette solutions: control, SUMO1 (1 μM) or SENP1 (2 μM). IK1 was blocked by the addition of 3 mM Ba^2+. […] Left, representative current sweeps; right, a representative time course showing the kinetics of hypoxic inhibition in cardiomyocytes studied with control pipette solution. The inhibition is precluded by including SENP1 (2 μM, magenta) in the recording pipette. The reverse ramp recording protocol is inset. […] SENP1 augments IK1 and protects the current from hypoxia. Data are from 8-10 RVCMs per group, **** P<0.0001, paired, two-tailed Student's […]. […] Representative data are shown with DAPI labeled nuclei and PLA interactions. Summary data are obtained from multiple experiments each with multiple fields of view containing 20-30 nuclei. The scale bar is 10 μm.
# (§1) To knockdown Kir2.1 expression, RVCMs were transduced with lentiviral particles carrying cGFP and shRNA targeting KCNJ2-mRNA for the channel. Kir2.1 knockdown cells (Kir2.1kd-CMs) were identified by expression of cGFP. Cells were studied with control pipette solution, or with pipette solutions containing purified SUMO1 (1 μM) or SENP1 (2 μM). Where indicated, the control pipette solution contained diC8 PIP2. Paired patch-clamp data were analyzed by Students t-test; ***, P<0.01. […] Kir2.1kd-CMs are identified by expression of GFP (inset, scale bar=10 μm). […] The arrow indicates the change in current-magnitude between exposure to ambient O2 and 2% O2 in the same cell. Right, Concentration-response curve showing that including diC8-PIP2 in the pipette opposes hypoxic-inhibition of IK1 in control RVCMs and RVCMs expressing the scrambled shRNA. The hypoxic-response is diminished in Kir2.1kd-CMs. Data are mean±s.d. for 7-8 cells per condition. […] Current inhibition is diminished when SENP1 is included in the recording pipette and is not observed when SUMO-insensitive Kir2.1-K49Q channels are studied. Data are mean±s.d. for 6 cells per condition.
# Hypoxic-inhibition of Kir2.1 in cardiomyocytes via SUMOylation. We studied the effects of acute hypoxia on IK1 in rat ventricular cardiomyocytes (RVCMs) by whole cell patch-clamp recording. […] Both the hypoxia-sensitive and insensitive components of the current were blocked by Ba^2+ (3 mM), consistent with the known role of Kir2 channels in mediating IK1 (FIG. 1a). To determine if SUMOylation mediates the hypoxic inhibition of IK1 we introduced purified SENP1 (2 μM) to the cytosol via the recording pipette. […] Both the SUMO1 and hypoxia-mediated inhibition of IK1 remained stable throughout the remainder of the experiment (up to 10 mins). […] Next, we visualized and quantified the interactions between native Kir2.1 and SUMO1 in RVCMs using the proximity-ligation association (PLA) assay with antibodies we validated in heterologous cells by Western blot. […] The validated Kir2 antibodies were paired with SUMO1 antibodies that we have tested and utilized before. Under control conditions, interactions were observed between Kir2.1 and SUMO1, but not between Kir2.2 or Kir2.3 and SUMO1. […] Although cardiomyocytes are typically cultured at 21% O2, the O2-level in the myocardium is estimated to be in the range of 5-10% O2, under physiological conditions.
# Hypoxic-inhibition of IK1/Kir2.1 is reduced by diC8-PIP2 in a concentration-dependent manner. We have shown that adding the exogenous, soluble PIP2 analog diC8-PIP2 into the patch-pipette opposes hypoxic-inhibition of IK1 (FIG. 4). […] As before, the effects of hypoxia were ameliorated by SENP1 (2 μM) and were not observed in the SUMO and hypoxia insensitive Kir2.1-K49Q channels (FIG. 4D).
# Ubc9 = Ubc9 (Homo sapiens, UniProt P63279); details: cited from earlier work
# Sequence of Ubc9 (P63279 whole entry): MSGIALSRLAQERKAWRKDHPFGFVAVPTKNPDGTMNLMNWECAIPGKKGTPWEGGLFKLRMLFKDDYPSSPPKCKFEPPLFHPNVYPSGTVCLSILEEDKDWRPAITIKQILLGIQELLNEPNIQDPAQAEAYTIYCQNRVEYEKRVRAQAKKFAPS
# Kir2.4 = molecular target: T2, Kir2.4 (Homo sapiens, UniProt Q9UNX9); assay: Whole-cell patch-clamp of Kir2.4 in HEK293 cells with SUMO1 or SENP1 in the recording pipette; format: cell-based; set-up: expressed in transfected cells; details: 1 nM in pipette; 140 mM bath K+; within one-minute of breakthrough
# T2 sequence (Q9UNX9 1-436): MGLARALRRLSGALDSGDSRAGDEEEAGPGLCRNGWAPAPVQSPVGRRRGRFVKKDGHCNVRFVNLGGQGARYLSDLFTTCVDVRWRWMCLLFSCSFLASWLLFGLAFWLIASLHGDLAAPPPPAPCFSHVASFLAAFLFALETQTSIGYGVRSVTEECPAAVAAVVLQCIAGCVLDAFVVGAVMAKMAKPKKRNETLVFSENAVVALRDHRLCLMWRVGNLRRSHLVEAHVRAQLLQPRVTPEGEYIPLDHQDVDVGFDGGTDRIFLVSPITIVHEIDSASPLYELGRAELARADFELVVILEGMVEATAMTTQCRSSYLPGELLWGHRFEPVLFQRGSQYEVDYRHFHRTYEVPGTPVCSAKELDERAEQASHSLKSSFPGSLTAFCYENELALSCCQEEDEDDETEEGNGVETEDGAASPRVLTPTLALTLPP
# Protocol: Currents were measured at −80 mV in 140 mM external K+.
# Similarly, currents were no longer enhanced by SENP1.
# SUMOylation regulates Kir2.4 channels in mammalian cells. Next, we tested if SUMO could regulate Kir2.4 channels in mammalian cells. Kir2.4 channels were transiently expressed in HEK293 cells and studied in whole-cell mode with 140 mM bath [K]^+, using a ramp protocol from −80 to +80 mV. Purified SUMO1 or SENP1 peptide were introduced via the recording pipette. At 1 nM, SUMO1, but not heat-denatured SUMO1, inhibited Kir2.4 currents by ˜40 and 60%, respectively, within one-minute of breakthrough. In contrast, 1 nM SENP1 increased the current by ˜50% (FIG. 7).
# The PIP2-dependence of SUMO-regulation. Using the 5-ptaseOCRL system, we depleted PIP2 in HEK293 cells expressing Kir2.4 and studied currents with 1 nM SUMO1, or SENP1 in the recording pipette. When currents were recorded after 5-min activation of the optogenetic probe, 5-ptaseOCRL, the inhibitory effect of 1 nM SUMO1 on Kir2.4 was reduced from ˜40% to ˜7% (FIG. 9). Current augmentation observed with SENP1 in the pipette was reduced from […] to ˜6%. These preliminary data support the conclusion that SUMO-regulation of Kir2.4 channels is PIP2-dependent.
# SUMOylation = details: cited from earlier work
# E1 and E2 = details: cited from earlier work
# [2] = molecular target: T3, SUMO activating enzyme (SAE) (Homo sapiens, UniProt Q9UBE0+Q9UBT2); details: cited from earlier work
# T3 sequence (Q9UBE0 1-346): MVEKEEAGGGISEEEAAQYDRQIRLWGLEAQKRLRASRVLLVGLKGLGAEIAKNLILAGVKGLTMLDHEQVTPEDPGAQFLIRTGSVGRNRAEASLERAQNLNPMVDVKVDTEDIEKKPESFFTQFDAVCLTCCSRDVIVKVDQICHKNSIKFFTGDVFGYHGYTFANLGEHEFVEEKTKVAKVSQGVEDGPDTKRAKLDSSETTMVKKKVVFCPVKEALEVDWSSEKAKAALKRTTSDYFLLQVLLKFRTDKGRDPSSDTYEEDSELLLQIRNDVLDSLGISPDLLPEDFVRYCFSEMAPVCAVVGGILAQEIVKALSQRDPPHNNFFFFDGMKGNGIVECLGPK
# T3 sequence (Q9UBT2 1-640): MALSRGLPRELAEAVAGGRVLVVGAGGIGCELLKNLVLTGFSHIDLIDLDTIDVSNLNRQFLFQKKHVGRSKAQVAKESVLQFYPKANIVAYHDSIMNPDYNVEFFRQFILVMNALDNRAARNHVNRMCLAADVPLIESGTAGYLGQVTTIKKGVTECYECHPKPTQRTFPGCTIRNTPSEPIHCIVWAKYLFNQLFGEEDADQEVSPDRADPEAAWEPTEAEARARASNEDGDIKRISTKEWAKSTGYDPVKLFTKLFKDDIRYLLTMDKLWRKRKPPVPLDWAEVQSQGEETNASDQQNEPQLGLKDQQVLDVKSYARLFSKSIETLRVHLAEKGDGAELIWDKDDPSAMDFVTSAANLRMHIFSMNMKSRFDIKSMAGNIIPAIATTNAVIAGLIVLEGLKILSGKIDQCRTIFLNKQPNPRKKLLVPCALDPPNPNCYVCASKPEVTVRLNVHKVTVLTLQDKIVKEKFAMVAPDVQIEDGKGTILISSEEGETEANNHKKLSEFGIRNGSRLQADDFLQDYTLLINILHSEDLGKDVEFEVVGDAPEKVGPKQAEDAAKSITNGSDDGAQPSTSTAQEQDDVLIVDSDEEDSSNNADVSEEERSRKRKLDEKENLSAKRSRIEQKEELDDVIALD
# Kir2.1 channels = molecular target: T4, Kir2.1 channels (Homo sapiens, UniProt P63252); assay: Whole-cell patch-clamp of heterologous Kir2.1 channels in HEK293T cells under hypoxia; format: cell-based; details: agent in recording pipette (SENP1 2 μM)
# T4 construct: expressed in transfected cells; host or cells: HEK293T
# T4 sequence (P63252 1-427): T1 sequence (Q64273 1-427) with S119G, C336Y, E388D, S402T, G405D
# Protocol: as §1
# Hypoxic-inhibition of IK1/Kir2.1 is reduced by diC8-PIP2 in a concentration-dependent manner. We have shown that adding the exogenous, soluble PIP2 analog diC8-PIP2 into the patch-pipette opposes hypoxic-inhibition of IK1 (FIG. 4). […]
molecule,measurement,setting,value
[Ba+2] [Ba^2+],block of IK1 (hypoxia-sensitive and insensitive components),[1]; 3 mM,blocked
viomellein,Ubc9 (SUMO-E2) inhibition,Ubc9,inhibitors of SUMO-E2
CO/C(=C/C(=O)O)[C@H]1c2cc3ccc(-c4ccc5cc6c(c(O)c5c4O)C(=O)C[C@@](C)(O)[C@H]6/C(=C\C(=O)O)OC)c(O)c3c(O)c2C(=O)C[C@@]1(C)O [spectomycin B1],Ubc9 (SUMO-E2) inhibition,Ubc9,inhibitors of SUMO-E2
C[C@@H](C(=O)Nc1ccc(NC(=O)c2ccc(C(=O)c3ccccc3)cc2)cc1)n1cccn1 [Compound 27],formation of the SUMO-E2 complex,Ubc9,inhibited formation of the SUMO-E2 complex
Cc1cc(NC(=O)c2ccc(S(=O)(=O)N3CCC(C)CC3)cc2)ccc1NC(=O)Cn1cccn1 [Compound 26],formation of the SUMO-E2 complex,Ubc9,inhibited formation of the SUMO-E2 complex
chaetochromin A,Ubc9 (SUMO-E2) inhibition,Ubc9,inhibitors of SUMO-E2
"heat-denatured SUMO1: heat-denatured SUMO1 peptide, control",inhibition of Kir2.4 currents,Kir2.4,not
CSC1=C(N)C(=O)c2[nH]cc(CO)c2C1=N [macrophilone A],SUMOylation inhibition,SUMOylation,demonstrated SUMOylation inhibitory activity through formation of ROS
same,ROS generation and E1/E2 crosslinking,E1 and E2,generated ROS and subsequent E1 and E2 crosslinking
O=c1cc(-c2ccc(O)c(O)c2O)oc2ccccc12 [Compound 2-D08],Ubc9 (SUMO-E2) inhibition,Ubc9,inhibits Ubc9 by preventing the transfer of SUMO from Ubc9 to the substrate
c1coc(-c2cc(CNc3ncnc4sc5cnccc5c34)no2)c1 [Compound 22],formation of the E1-SUMO complex,[2],unable to block formation of the E1-SUMO complex
same,selectivity for the SUMOylation pathway,Ubc9,modest selectivity for the SUMOylation pathway
COC1=C(N)C(=O)c2[nH]cc(CO)c2C1=N [Compound 61],ROS generation and E1/E2 crosslinking,E1 and E2,generated ROS and subsequent E1 and E2 crosslinking
CCCCCCCC(=O)OC[C@H](COP(=O)(O)O[C@@H]1[C@H](O)[C@H](O)[C@@H](OP(=O)(O)O)[C@H](OP(=O)(O)O)[C@H]1O)OC(=O)CCCCCCC [diC8-PIP2],hypoxic inhibition of IK1,"[1]; 100 μM diC8-PIP2 in pipette, wild-type RVCMs, ~40% without",~15%
same,effect on hypoxic inhibition of IK1,"[1]; ambient O2 to 2% O2, agent in pipette (SENP1 2 μM, SUMO1 1 μM, diC8-PIP2) or pretreatment (TAK981)",diminished the hypoxic-inhibition of IK1 in a concentration-dependent manner
same,effect on hypoxic inhibition of Kir2.1 channels,Kir2.1 channels,concentration-dependent reduction in hypoxic inhibition
